Starred links: 1 amine or outer side, 2 acyl side, 3 side chain; linkers in the order of their positions; H or OH if unused. Non-standard residues stand in square brackets, D forms with d. Groups on a side chain read outwards from the residue. Primed or numbered codes have the meaning given here. No end group written: not given here. *: point of attachment. alkynylpropionyl = alkynylpropionyl (alkyne-ethyl) group on the N-terminal spacer, reacted by CuAAC with the azide; PEG4′ = PEGylated amino acid with four EG (ethylene glycol) repeats; C16 diacid = O=C(O)CCCCCCCCCCCCCCC(=O)*; γGlu = O=C(O)[C@H](CCC(=O)[*:2])N[*:1]; Palmitoyl = CCCCCCCCCCCCCCCC(=O)*; Azidoacetyl = [N-]=[N+]=NCC(=O)*; Aib = CC(C)(N)C(=O)O
Columns and labels:
INS-1 cells = assay: Alamar Blue cell viability / proliferation of INS-1 cells; format: cell-based, rat; settings: 30 mM glucose, 100 nM, 24, 48 and 72 hours, compared with liraglutide, FIG. 19
Protocol: The cultured INS-1 cells were seeded at a density of 2×10^4 cells/well into 96-well plate in culture medium containing 10% […] bovine serum. After 48 hours, the cells were further incubated for another 24 hours for serum starvation. […] The cells cultured in normal medium being used as a control.
After being incubated for 24, 48 and 72 hours, the cell viability was then determined by Alamar Blue cell viability reagent kit (Invitrogen) in accordance with the manufacturer's instruction.
The cell proliferation ratio (see FIG. 19) was a ratio of the cell viability at multiple time points compared to 0 hour.

GLP-1 receptor = molecular target: T1, GLP-1 receptor (Rattus norvegicus, UniProt P32301); assay: GLP-1R-mediated cAMP generation in INS-1 cells (cAMP ELISA kit); format: cell-based; settings: 100 nM, 2.5 mM glucose, 20 min, 37° C., FIG. 17
T1 construct: endogenous in cells; host or cells: rat INS-1 cells
T1 sequence (P32301 22-463): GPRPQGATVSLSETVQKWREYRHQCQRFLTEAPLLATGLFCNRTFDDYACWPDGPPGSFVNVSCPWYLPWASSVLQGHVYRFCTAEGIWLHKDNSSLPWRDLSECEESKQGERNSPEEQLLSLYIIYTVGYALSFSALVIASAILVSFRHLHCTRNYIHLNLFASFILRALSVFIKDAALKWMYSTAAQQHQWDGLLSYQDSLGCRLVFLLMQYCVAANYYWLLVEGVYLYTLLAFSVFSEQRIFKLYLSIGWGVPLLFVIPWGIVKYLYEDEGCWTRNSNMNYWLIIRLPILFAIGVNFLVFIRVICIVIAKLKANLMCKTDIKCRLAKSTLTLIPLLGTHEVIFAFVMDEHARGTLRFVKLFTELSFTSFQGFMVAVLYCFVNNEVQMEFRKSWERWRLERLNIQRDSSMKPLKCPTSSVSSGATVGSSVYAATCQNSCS
Protocol: Briefly, on day one, 2×10^5 INS-1 cells were plated in each well of a 24-well plate (ThermoFisher Scientific, Waltham, USA) with 500 μL/well culture medium. […] 100 nM liraglutide, as a positive control for cAMP generation, was added to control wells and incubated for 20 min at 37° C. Glucose at lower concentration (2.5 mM) was used as a negative control, and glucose at higher concentration (16 mM) was used as a control for glucose-induced cAMP generation. After 20 minutes of incubation, the medium was aspirated and 200 μl of 0.1N HCl was added to each well. The cells were scraped off from the surface by cell scraper and subjected to centrifugation at 1,000×g for 10 min at 4° C. The supernatant was transferred to new tubes and used for experiment in a 96-well plate. Cyclic AMP levels in the cells were measured at wavelength of 420 nm using SpectraMax M2 microplate reader (Molecular devices, San Jose, USA).

caspase-3 = assay: Western blot of activated caspase-3 expression in INS-1 cells; format: cell-based, rat; settings: xx mM glucose, normalized against β-actin, FIGS. 18A/18B
Source text: Cleaved caspase-3 is a key executor in the apoptotic process. In this example, the expression of caspase-3 was detected using western blot analysis.
For the immunoblot analysis, proteins were separated using SDS-PAGE, and then transferred onto a polyvinylidene fluoride (PVDF) membrane. The membrane was probed using antibodies against caspase-3 (Cell Signaling Technology, Danvers, USA), followed by horseradish peroxidase-(HRP) conjugated secondary antibodies (Epitomics, Burlingame, USA). The membrane was visualized using an enhanced chemiluminescence system (GE Healthcare Life Sciences, Buckinghamshire, USA). The levels of protein expression were normalized against β-actin expression.

[1] = in vivo; cited from earlier work

GLP-1-Aib^8-EG4-2E-2FA-C16-acid: Aib-substituted GLP-1 agonist having an azide group coupled via CuAAC to alkyne-EG4-2E-2FA-C16-acid (Example 11) (peptide H[Aib]EGTFTSDVSSYLEGQAAK([γGlu-Azidoacetyl])LEFIAWLVRGRG; chain alkynylpropionyl-[PEG4′]K([γGlu-C16 diacid])[PEG4′]K([γGlu-C16 diacid])-OMe; also: triazole at chain A 20 to a chain's N-terminus)
cell viability (cell proliferation ratio vs 0 hour) (INS-1 cells): significantly improved | cellular cAMP level (GLP-1 receptor): elicited the expected rise in cellular cAMP level

GLP-1-Aib^8-EG4-2E-2FA-C16: Aib-substituted GLP-1 agonist having an azide group coupled via CuAAC to alkyne-EG4-2E-2FA-C16 (Example 10) (peptide H[Aib]EGTFTSDVSSYLEGQAAK([γGlu-Azidoacetyl])LEFIAWLVRGRG; chain alkynylpropionyl-[PEG4′]K([γGlu-Palmitoyl])[PEG4′]K([γGlu-Palmitoyl])-OMe; also: triazole at chain A 20 to a chain's N-terminus)
expression level of caspase-3 (caspase-3): can effectively reduce the expression level of caspase-3 | cell viability (cell proliferation ratio vs 0 hour) (INS-1 cells): significantly improved | cellular cAMP level (GLP-1 receptor): elicited the expected rise in cellular cAMP level

albiglutide
serum half-life [1]: 96 to 170 h
